Experimental data as given in patent US20200281202A1 (priority 2017, published 2020).

What was measured:
[1] = system: Phytophthora infestans; assay: whole plant or invertebrate; type: in vivo; settings: Phytophthora infestans, in Solanum lycopersicum, read-out: control (disease severity) compared to the untreated check
[2] = system: Phytophthora infestans; assay: microbe, parasite or virus in culture; type: cell-based; settings: Phytophthora infestans, 168 h, read-out: control (radial growth) compared to the untreated check
[3] = system: Plasmopara viticola; assay: Plasmopara viticola test in grape, preventive; type: in vivo; settings: Plasmopara viticola, 50 ppm spray, grape seedlings inoculated one day after treatment, read-out: control (disease severity) compared to the untreated check
Procedure: Example B: Plasmopara viticola Test in Grape
Compounds were dissolved in 2% DMSO/Acetone & then mixed with water to calibrated spray volume of 50 ml. This 50 ml spray solution was poured into the spray bottles for further applications.
To test the preventive activity of compounds, five week old healthy grape seedlings raised in the greenhouse were sprayed with active compound preparation at the stated application rates inside the spray cabinets using hallow-cone nozzles. One day after treatment, the plants were inoculated with inoculum suspension (Cold sterile water) containing 6×10^6 Plasmopara viticola inoculum. The inoculated plants were then kept in greenhouse chamber at 18-21° C. temperature and 95-100% relative humidity for disease expression. Compounds
A visual assessment of compound's performance was carried by rating the disease severity (0-100% scale) on treated plants on 3, 7, 10 and 15 days after application. Efficacy (% control) of the compounds was calculated by comparing the disease rating in the treatment with untreated control. The sprayed plants were also assessed for compound's phytotoxic effects by recording symptoms like necrosis, chlorosis and stunting.

SMILES | pest or weed control at 50 ppm [1] | inhibition of growth at 30 ppm [2] | pest or weed control at 50 ppm [3]
Cc1cccnc1OCC(=O)N1CCC(c2nc(C3=NOC(c4c(Cl)cccc4Cl)C3)cs2)CC1 (stereo not drawn) [Compound 76, 1-(4-(4-(5-(2,6-dichlorophenyl)-4,5-dihydroisoxazol-3-yl)thiazol-2-yl)piperidin-1-yl)-2-((3-methylpyridin-2-yl)oxy)ethan-1-one] | 90% | 70% | 90%
O=C(COc1ncccc1C(F)(F)F)N1CCC(c2nc(C3=NOC(c4c(F)cccc4F)C3)cs2)CC1 (stereo not drawn) [Compound 29, 1-(4-(4-(5-(2,6-difluorophenyl)-4,5-dihydroisoxazol-3-yl)thiazol-2-yl)piperidin-1-yl)-2-((3-(trifluoromethyl)pyridin-2-yl)oxy) ethan-1-one] | 90% | 70% | 90%
O=C(COc1ncc(Cl)cc1C(F)(F)F)N1CCC(c2nc(C3=NOC(c4c(Cl)cccc4Cl)C3)cs2)CC1 (stereo not drawn) [Compound 31, 2-((5-chloro-3-(trifluoromethyl)pyridin-2-yl)oxy)-1-(4-(4-(5-(2,6-dichlorophenyl)-4,5-dihydroisoxazol-3-yl)thiazol-2-yl)piperidin-1-yl)ethan-1-one] | 90% | 70% | 90%
CS(=O)(=O)Oc1cccc(Cl)c1C1CC(c2csc(C3CCN(C(=O)CSc4ncccc4C(F)(F)F)CC3)n2)=NO1 (stereo not drawn) [Compound 61, 3-chloro-2-(3-(2-(1-(2-((3-(trifluoromethyl)pyridin-2-yl)thio)acetyl)piperidin-4-yl)thiazol-4-yl)-4,5-dihydroisoxazol-5-yl)phenyl methanesulfonate] | 90% | 70% | 90%
Cn1nc(C(F)(F)F)cc1OCC(=O)N1CCC(c2nc(C3=NOC(c4c(Cl)cc(Cl)cc4Cl)C3)cs2)CC1 (stereo not drawn) [Compound 10, 2-((1-methyl-3-(trifluoromethyl)-1H-pyrazol-5-yl)oxy)-1-(4-(4-(5-(2,4,6-trichlorophenyl)-4,5-dihydroisoxazol-3-yl)thiazol-2-yl)piperidin-1-yl)ethan-1-one] | 90% | 70% | 90%
CS(=O)(=O)Oc1cccc(Cl)c1C1CC(c2csc(C3CCN(C(=O)COc4ncc(Br)cc4C(F)(F)F)CC3)n2)=NO1 (stereo not drawn) [Compound 36] | 90% | 70% | 90%
O=C(COc1ncc(Cl)cc1C(F)(F)F)N1CCC(c2nc(C3=NOC(c4c(F)cccc4F)C3)cs2)CC1 (stereo not drawn) [Compound 33] | 90% | 70% | 90%
O=C(COc1ncc(Cl)cc1C(F)(F)F)N1CCC(c2nc(C3=NOC(c4c(Cl)cc(Cl)cc4Cl)C3)cs2)CC1 (stereo not drawn) [Compound 34] | 90% | 70% | 90%
O=C(COc1ncccc1C(F)(F)F)N1CCC(c2nc(C3=NOC(c4c(Cl)cc(Cl)cc4Cl)C3)cs2)CC1 (stereo not drawn) [Compound 30, 1-(4-(4-(5-(2,4,6-trichlorophenyl)-4,5-dihydroisoxazol-3-yl)thiazol-2-yl)piperidin-1-yl)-2-((3-(trifluoromethyl)pyridin-2-yl)oxy)ethan-1-one] | 90% | 70% | 90%
Cc1cccnc1OCC(=O)N1CCC(c2nc(C3=NOC(c4c(F)cccc4F)C3)cs2)CC1 (stereo not drawn) [Compound 77, 1-(4-(4-(5-(2,6-difluorophenyl)-4,5-dihydroisoxazol-3-yl)thiazol-2-yl)piperidin-1-yl)-2-((3-methylpyridin-2-yl)oxy)ethan-1-one] | 90% | 70% | 90%
